Test results published in US9034906B2, “EP4 agonist” (Asahi Glass Company, Limited, priority 2008, dated 2015).

Experiments:
[1] = system: dextran sodium sulfate-induced colitis; assay: Dextran sodium sulfate-induced colitis model in mice (BALB/c), prophylactic; assay type: in vivo, mouse; conditions: 2.2 w/v % DSS
Excerpt: The prophylactic effect of compound F on ulcerative colitis was examined in dextran sodium sulfate-induced colitis model.
Female BALB/c mice (6 weeks old, Japan SLC) were purchased, acclimated for 1 week and used for the study. Except the normal group, the mice were allowed to freely drink a dextran sodium sulfate (to be abbreviated as DSS, MP Biochemicals, M.W. 36,000-50,000, Lot No. 3439J) solution prepared to 2.2 w/v % for 9 days to induce colitis. Compound F was orally administered at doses of 0.1, 0.3 and 1 mg/kg, once a day, daily, from the start day of DSS drinking (day 0) to one day before autopsy (day 9). To the control group was orally administered a solvent (1 vol % ethanol solution) at 10 mL/kg in the same manner.
Thus, to determine the level of diarrhea, the stool was graded into 6 levels; normal (score 0), spherical stool being not less than 50% (score 1), banana-shaped stool being less than 50% (score 2), banana-shaped stool being not less than 50% (score 3), muddy stool (score 4), watery stool (score 6) (stool consistency score). The fecal occult blood (including proctorrhagia) was graded using fecal occult blood slide 5 Shionogi II (Shionogi & Co., Ltd.) into 6 levels; negative (no change of the slide color from yellow, score 0), weakly positive (slightly blue green, score 1), positive (blue green, score 2), moderately positive (clear blue green, score 3), strongly positive (instantaneous color change to dark blue with color developer, score 4), and proctorrhagia (score 5). The sum of the stool consistency score and occult blood score was defined as the stool score. Eight to 10 animals were used for each group, and the results were expressed as average±standard deviation. On the day of autopsy, after laparotomy under ether anesthesia and blood collection, the mice were exsanguinated to death. Then the large intestines were dissected from just below the cecum to the anus and the length thereof was measured.

eye = assay: Local irritative effect on the eye in rabbits; assay type: in vivo; conditions: rabbit, single ocular instillation
Procedure: Japanese white rabbits (male, 10 weeks old, BIOTEC Co., Ltd.) were purchased, acclimated for 1 week and used for the study. Compound F solution (0.01 w/v %) was instilled once into the cornea of both eyes at a volume of 50 μL/eye with a micropipette. The intraocular pressure of the right eye was measured and the local irritative effect on the eye was evaluated using the left eye. After surface anesthesia with oxybupranol (Benoxil 0.4% instillation solution), the intraocular pressure was measured before ocular instillation and 1, 2, 3, 4, 6 and 8 hr after the instillation using a pneumatonometer (Alcon Ltd.). In addition, the local irritative effect on the eye was evaluated by scoring conjunctival congestion, conjunctival edema, cornea opacity, iris congestion, excretion and eye closure performance. For the evaluation, phosphate buffer was used for the solvent control group, and isopropyl unoprostone (Rescula eye drops, Santen Pharmaceutical Co., Ltd.) was used for comparison. Six animals were used for each group and the results were expressed as average.

[2] = system: ethanol-induced gastric mucosal injury; assay: Ethanol-induced gastric mucosal injury model in rats; assay type: in vivo, rat; conditions: SD rats, 30 min before ethanol
Excerpt: The suppressive effect of compound F on gastric mucosal injury was investigated in ethanol-induced gastric mucosal injury model in rats. This model is frequently used as an animal model of human acute gastritis associated with congestive mucosal injury (Reference K).
Male SD rats (7 weeks old, Charles River) were purchased through Oriental BioService Inc., acclimated for 1 week and used for the study. The rats were grouped based on the body weight, placed in a clean cage set with a wire mesh floor one day before the study, fasted for 19 hr (without water for last 3 hr), and orally administered with ethanol (special grade, Nacalai Tesque, Lot No. V8A5862, 1.5 mL) in all groups to induce gastric mucosal injury. Compound F was orally administered at doses of 0.01, 0.1 and 1 mg/kg 30 min before induction of gastric mucosal injury at a volume of 5 mL/kg. To the control group was orally administered a solvent (1 vol % ethanol solution) at 5 mL/kg in the same manner. Eight animals were used for each group.
The rats were bled to death from the abdominal aorta and caudal vena cava under ether anesthesia after 1 hr from the ethanol administration, and the stomach was isolated. […] The length and width of each ulcer were measured under a stereomicroscope, the area was calculated, and the sum thereof was taken as the total ulcer area.

Structure (SMILES): Cc1cccc([C@@H](C)[C@H](O)/C=C/[C@@H]2[C@@H]3[C@H](C[C@H]2O)O/C(=C\CCCc2nnn[nH]2)C3(F)F)c1 [Compound F, 4-[(Z)-(1S,5R,6R,7R)-6-[(1E,3R,4R)-3-hydroxy-4-(m-tolyl)-1-pentenyl]-7-hydroxy-2-oxa-4,4-difluoro-bicyclo[3.3.0]octan-3-ylidene]-1-(tetrazol-5-yl)butane]
- Suppression of the increase in the stool score ([1]; oral 0.1 mg/kg once a day): suppressive tendency
- Effect on shortening of the large intestine ([1]; oral 0.1, 0.3 and 1 mg/kg once a day): dose-dependent suppressive effect
- Suppression of the increase in the stool score ([1]; oral 0.3 and 1 mg/kg once a day): significant
- Local irritant effect on the eye (eye): conjunctival edema and eye closure were observed 1 hr after the instillation in some animals
- Effect on total ulcer area (stomach) ([2]; oral 1 mg/kg): almost completely reduced the area
- Effect on total ulcer area (stomach) ([2]; oral, from 0.01 mg/kg (0.01, 0.1 and 1 mg/kg)): significantly reduced the total ulcer area in a dose-dependent manner
